Active and inactive are the calls of the source. The rule behind the calls is not given here.
What was measured:
[1] = molecular target: T1, Falcipain 2 (Plasmodium falciparum) (UniProt Q9N6S8); assay: Inhibition of recombinant Plasmodium falciparum falcipain-2 expressed in bacterial expression system using ZFR-AMC as substrate at 100 uM measured for 30 mins by fluorimetric assay relative to control
T1 sequence (whole entry): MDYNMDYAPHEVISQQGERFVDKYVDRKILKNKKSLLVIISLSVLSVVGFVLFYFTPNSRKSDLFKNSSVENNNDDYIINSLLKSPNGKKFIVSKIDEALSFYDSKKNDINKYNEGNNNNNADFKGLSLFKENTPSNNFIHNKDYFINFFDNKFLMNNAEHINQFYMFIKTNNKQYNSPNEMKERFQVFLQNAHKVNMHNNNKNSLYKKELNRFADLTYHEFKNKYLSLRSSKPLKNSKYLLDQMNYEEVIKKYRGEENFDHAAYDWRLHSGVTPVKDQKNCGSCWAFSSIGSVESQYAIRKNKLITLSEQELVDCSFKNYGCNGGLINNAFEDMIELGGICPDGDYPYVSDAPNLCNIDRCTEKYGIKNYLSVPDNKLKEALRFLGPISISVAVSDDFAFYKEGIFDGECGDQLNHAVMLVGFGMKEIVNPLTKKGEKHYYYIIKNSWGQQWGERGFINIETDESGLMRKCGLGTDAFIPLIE

[2] = molecular target: T2, Cysteine protease falcipain-3 (Plasmodium falciparum) (UniProt Q9NAW4); assay: Inhibition of recombinant Plasmodium falciparum falcipain-3 expressed in bacterial expression system using ZFR-AMC as substrate at 100 uM measured for 30 mins by fluorimetric assay relative to control
T2 sequence (whole entry): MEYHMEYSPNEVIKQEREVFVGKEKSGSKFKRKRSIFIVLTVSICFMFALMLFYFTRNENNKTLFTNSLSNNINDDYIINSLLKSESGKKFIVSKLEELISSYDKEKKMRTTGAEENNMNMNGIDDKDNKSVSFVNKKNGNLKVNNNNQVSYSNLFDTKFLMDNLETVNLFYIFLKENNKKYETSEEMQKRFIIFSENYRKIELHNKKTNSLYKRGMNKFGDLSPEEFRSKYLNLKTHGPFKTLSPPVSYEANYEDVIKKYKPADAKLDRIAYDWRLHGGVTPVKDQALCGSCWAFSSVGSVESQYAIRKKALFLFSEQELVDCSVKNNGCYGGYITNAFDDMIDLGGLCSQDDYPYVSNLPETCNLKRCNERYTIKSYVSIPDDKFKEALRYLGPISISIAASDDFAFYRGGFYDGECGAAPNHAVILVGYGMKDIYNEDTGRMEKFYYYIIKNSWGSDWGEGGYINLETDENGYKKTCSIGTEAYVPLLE

[3] = test system: Plasmodium falciparum; assay: Antimalarial activity against Plasmodium falciparum 3D7 infected in human erythrocytes assessed as food-vacoules abnormalities at 10 uM incubated for 54 hrs by giemsa staining based light microscopy; type: functional, organism-based
[4] = test system: Plasmodium falciparum; assay: Antimalarial activity against Plasmodium falciparum 3D7 infected in human erythrocytes assessed as morphological abnormalities at 10 uM incubated for 54 hrs by giemsa staining based light microscopy; type: functional, organism-based
[5] = test system: Plasmodium falciparum; assay: Antimalarial activity against Plasmodium falciparum 3D7 infected in human erythrocytes assessed as increase in arrest of ring stage at 100 uM incubated for 54 hrs by giemsa staining based light microscopy relative to control; type: functional
[6] = molecular target: T3, Cysteine protease falcipain-3 (Plasmodium falciparum, UniProt Q9NAW4); assay: Inhibition of recombinant Plasmodium falciparum falcipain-3 expressed in bacterial expression system using ZFR-AMC as substrate measured for 30 mins by fluorimetric assay
T3 sequence (Q9NAW4 whole entry): T2 sequence (whole entry)

[7] = molecular target: T4, Falcipain 2 (Plasmodium falciparum, UniProt Q9N6S8); assay: Inhibition of recombinant Plasmodium falciparum falcipain-2 expressed in bacterial expression system using ZFR-AMC as substrate measured for 30 mins by fluorimetric assay
T4 sequence (Q9N6S8 whole entry): T1 sequence (whole entry)

[8] = test system: Plasmodium falciparum; assay: Antimalarial activity against Plasmodium falciparum 3D7 infected in human erythrocytes assessed as increase in arrest of ring stage at 100 uM incubated for 46 hrs by giemsa staining based light microscopy; type: functional, organism-based
[9] = test system: Plasmodium falciparum; assay: Antimalarial activity against Plasmodium falciparum 3D7 infected in human erythrocytes assessed as increase in arrest of ring stage at 100 uM measured after 46 hrs by giemsa staining based light microscopy; type: functional, organism-based

`O=C1CN(CC(=O)NC2CCOc3ccccc32)CCN1` (stereo unspecified) was tested, and the inhibition [1] was 25% and the inhibition [2] was 25%.

`O=C(CN1CCN(C2=NCCC=N2)CC1)Nc1cccc2ccccc12` showed an inhibition [1] of 19% and an inhibition [2] of 21%.

In the case of `CC(C)C[C@H](NC(=O)[C@H]1O[C@@H]1C(=O)O)C(=O)NCCCCN=C(N)N`, the Activity [3] is reported as “Active” and the Activity [4] is reported as “Active”.

`O=C(CN1CCC(C2N=c3ccccc3=N2)CC1)Nc1cccc2ccccc12` gave an inhibition [1] of 47% and an inhibition [2] of 49%.

Work on `Cc1cccc(O)c1OC1CCN(CC(=O)Nc2ccc(CN3CCOCC3)cc2)CC1` yielded an inhibition [1] of 43% and an inhibition [2] of 25%.

`O=C1CCc2cc(CNC(=O)Cn3ncc4ccccc4c3=O)ccc2C1` was tested, and the inhibition [1] was 42% and the inhibition [2] was 41%.

In the case of `O=C(CN1CCC(c2ccccc2)C1)NC1CCC2(CC1)OCCO2` (stereo unspecified), the inhibition [1] is reported as 22% and the inhibition [2] is reported as 69%.

In the case of `O=C(Nc1ccc([C@@H]2C=c3ccccc3=N2)cc1)[C@@H]1CCCN1C1CCOCC1`, the inhibition [1] is reported as 46% and the inhibition [2] is reported as 50%.

Compound `O=C(NCCCNC(=O)c1cc2ccccc2[nH]1)c1ccc(-c2ccccc2)cc1` has an Activity [5] of 100%, an inhibition [1] of 51% and an IC50 [6] of 8.56 µM. The inhibition [2] was 62% and the IC50 [7] was 12.2 µM.

For `O=C1C[C@H](C(=O)Nc2ccccc2)NC(N2CCN(Cc3ccccc3)CC2)=N1`, the inhibition [1] was 44% and the inhibition [2] was 17%.

`O=C(NCCCn1nc2n(c1=O)CCCC2)c1cc2c(cc1O)CCCC2` gave an inhibition [1] of 42% and an inhibition [2] of 15%.

`O=C(CCC1=CC(=O)C2C(=N1)SC1=C2CCCC1)NC1CCCCNC1=O` (stereo unspecified) was tested, and the inhibition [1] was 49% and the inhibition [2] was 39%.

`CCc1ccc(NC(=O)CN2CCN(c3nc4ccccc4s3)CC2)cc1` was tested, and the inhibition [1] was 43% and the inhibition [2] was 26%.

Compound `O=C(CNC(=O)N1CCN(Cc2ccccc2)CC1)NC1=CC2=CC=N[C@@H]2C=C1` has an inhibition [1] of 39% and an inhibition [2] of 15%.

`CN1CCCc2cc(CCNC(=O)C(=O)Nc3ccc4c(c3)OCO4)ccc21` was tested, and the inhibition [1] was 53%, the IC50 [6] was 9.98 µM and the inhibition [2] was 61%. The IC50 [7] was 14.7 µM, the Activity [8] was “Active” and the Activity [9] was “inactive”.

Work on `Cc1ccc(NCC(=O)NC2CC2)cc1S(=O)(=O)C1CCCCC1` yielded an inhibition [1] of 19% and an inhibition [2] of 6%.

`Cc1ccc(NC(=O)CN2CCC[C@H](c3nc4ccccc4o3)C2)cc1C` gave an inhibition [1] of 41% and an inhibition [2] of 9%.
